Columns and labels:
Experiment in all cases: Ambit KinomeScan screening
Format in all cases: binding
Settings in all cases: CAL-130 10 μM
ACVR1 = molecular target: T1, ACVR1 (Homo sapiens, UniProt Q04771)
T1 construct: unspecified tag ("tagged kinases"); purchased Ambit (KinomeScan screening)
Method in brief: (§1)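 Competition binding, 10 μM CAL-130 vs immobilized bait ligand; tagged kinases; readout % of control binding (lower = tighter); >35% = non-hit.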

BLK = molecular target: T2, BLK (Homo sapiens, UniProt P51451)
T2 construct: purchased Ambit (KinomeScan screening service)
T2 sequence (P51451 whole entry): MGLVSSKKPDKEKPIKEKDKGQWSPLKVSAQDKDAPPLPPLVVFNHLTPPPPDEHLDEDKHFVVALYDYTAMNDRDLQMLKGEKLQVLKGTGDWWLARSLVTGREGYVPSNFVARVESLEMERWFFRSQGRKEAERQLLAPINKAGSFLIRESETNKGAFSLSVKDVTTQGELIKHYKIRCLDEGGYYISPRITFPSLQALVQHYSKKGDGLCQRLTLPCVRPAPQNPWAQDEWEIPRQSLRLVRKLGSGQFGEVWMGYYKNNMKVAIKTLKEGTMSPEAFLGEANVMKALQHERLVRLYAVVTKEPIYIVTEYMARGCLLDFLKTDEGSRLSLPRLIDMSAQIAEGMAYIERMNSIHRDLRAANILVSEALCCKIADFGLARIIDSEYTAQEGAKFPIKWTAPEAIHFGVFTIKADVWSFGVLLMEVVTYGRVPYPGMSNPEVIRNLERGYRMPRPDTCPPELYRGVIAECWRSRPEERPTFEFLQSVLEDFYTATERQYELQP
Method in brief: as §1

BMPR1B = molecular target: T3, BMPR1B (Homo sapiens, UniProt O00238)
T3 construct: purchased Ambit (KinomeScan screening service)
Method in brief: as §1

CAMKK2 = molecular target: T4, CAMKK2 (Homo sapiens, UniProt Q96RR4)
T4 construct: purchased Ambit (KinomeScan screening)
Method in brief: as §1

CDK9 = molecular target: T5, CDK9 (Homo sapiens, UniProt P50750)
T5 construct: purchased Ambit (KinomeScan screening service)
Method in brief: as §1

CSK = molecular target: T6, CSK (Homo sapiens, UniProt P41240)
T6 construct: purchased Ambit (KinomeScan screening service)
Method in brief: as §1

DAPK2 = molecular target: T7, DAPK2 (Homo sapiens, UniProt Q9UIK4)
T7 construct: purchased Ambit (KinomeScan screening service)
Method in brief: as §1

DMPK = molecular target: T8, DMPK (Homo sapiens, UniProt Q09013)
T8 construct: unspecified tag ("tagged kinases"); purchased Ambit (KinomeScan screening service)
T8 sequence (Q09013 whole entry): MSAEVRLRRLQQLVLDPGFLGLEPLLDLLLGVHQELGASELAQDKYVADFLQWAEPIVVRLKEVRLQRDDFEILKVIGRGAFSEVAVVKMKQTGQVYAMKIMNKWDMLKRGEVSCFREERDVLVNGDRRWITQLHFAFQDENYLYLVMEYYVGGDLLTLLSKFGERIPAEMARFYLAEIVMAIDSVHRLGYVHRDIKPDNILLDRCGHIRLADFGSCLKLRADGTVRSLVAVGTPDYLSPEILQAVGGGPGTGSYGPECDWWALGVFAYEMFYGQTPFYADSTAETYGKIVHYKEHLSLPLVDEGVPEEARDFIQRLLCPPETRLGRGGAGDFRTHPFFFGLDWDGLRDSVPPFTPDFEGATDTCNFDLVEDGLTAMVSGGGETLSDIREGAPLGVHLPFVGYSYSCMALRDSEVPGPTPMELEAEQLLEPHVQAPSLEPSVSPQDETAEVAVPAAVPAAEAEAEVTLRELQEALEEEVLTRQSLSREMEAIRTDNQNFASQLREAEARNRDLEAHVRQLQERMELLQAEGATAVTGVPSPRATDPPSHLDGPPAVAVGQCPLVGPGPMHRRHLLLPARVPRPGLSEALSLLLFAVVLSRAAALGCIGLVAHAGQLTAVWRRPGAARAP
Method in brief: as §1

EGFR = molecular target: T9, EGFR (Homo sapiens, UniProt P00533)
T9 construct: unspecified tag; purchased Ambit (KinomeScan screening service)
Method in brief: as §1

EGFR(L747-T751DEL, SINS) = molecular target: T10, EGFR(L747-T751DEL, SINS) (Homo sapiens, UniProt P00533, DEL747-750/T751S)
T10 construct: unspecified tag; purchased Ambit (KinomeScan screening service)
Method in brief: as §1

EPHA1 = molecular target: T11, EPHA1 (Homo sapiens, UniProt P21709)
T11 construct: purchased Ambit (KinomeScan screening service)
Method in brief: as §1

EPHA2 = molecular target: T12, EPHA2 (Homo sapiens, UniProt P29317)
T12 construct: purchased Ambit (KinomeScan screening service)
Method in brief: as §1

EPHB6 = molecular target: T13, EPHB6 (Homo sapiens, UniProt O15197)
T13 construct: purchased Ambit (KinomeScan screening service)
Method in brief: as §1

IKK-β = molecular target: T14, IKK-β (Homo sapiens, UniProt O14920)
T14 construct: Ambit (KinomeScan screening)
Method in brief: as §1

JAK3(JH1domain) = molecular target: T15, JAK3(JH1domain) (Homo sapiens, UniProt P52333)
T15 construct: JAK3(JH1domain); purchased Ambit (KinomeScan screening)
Method in brief: as §1

KIT(V559D, T670I) = molecular target: T16, KIT(V559D, T670I) (Homo sapiens, UniProt P10721, T670I/V559D)
T16 construct: unspecified tag ('tagged kinases'); purchased Ambit (KinomeScan screening)
Method in brief: as §1

LOK = molecular target: T17, LOK (Homo sapiens, UniProt O94804)
T17 construct: unspecified tag ('tagged kinases'); purchased Ambit (KinomeScan screening service)
Method in brief: as §1

MAP3K3 = molecular target: T18, MAP3K3 (Homo sapiens, UniProt Q99759)
T18 construct: Ambit (KinomeScan screening)
Method in brief: as §1

MAP4K5 = molecular target: T19, MAP4K5 (Homo sapiens, UniProt Q9Y4K4)
T19 construct: Ambit (KinomeScan screening)
Method in brief: as §1

MEK6 = molecular target: T20, MEK6 (Homo sapiens, UniProt P52564)
T20 construct: purchased Ambit (KinomeScan screening)
Method in brief: as §1

MERTK = molecular target: T21, MERTK (Homo sapiens, UniProt Q12866)
T21 construct: purchased Ambit (KinomeScan screening)
Method in brief: as §1

MKNK1 = molecular target: T22, MKNK1 (Homo sapiens, UniProt Q9BUB5)
T22 construct: unspecified tag ('tagged kinases'); purchased Ambit (KinomeScan screening)
Method in brief: as §1

MLK3 = molecular target: T23, MLK3 (Homo sapiens, UniProt Q16584)
T23 construct: unspecified tag ('tagged kinases'); purchased Ambit (KinomeScan screening)
Method in brief: as §1

PAK3 = molecular target: T24, PAK3 (Homo sapiens, UniProt O75914)
T24 construct: purchased Ambit (KinomeScan screening service)
T24 sequence (O75914 whole entry): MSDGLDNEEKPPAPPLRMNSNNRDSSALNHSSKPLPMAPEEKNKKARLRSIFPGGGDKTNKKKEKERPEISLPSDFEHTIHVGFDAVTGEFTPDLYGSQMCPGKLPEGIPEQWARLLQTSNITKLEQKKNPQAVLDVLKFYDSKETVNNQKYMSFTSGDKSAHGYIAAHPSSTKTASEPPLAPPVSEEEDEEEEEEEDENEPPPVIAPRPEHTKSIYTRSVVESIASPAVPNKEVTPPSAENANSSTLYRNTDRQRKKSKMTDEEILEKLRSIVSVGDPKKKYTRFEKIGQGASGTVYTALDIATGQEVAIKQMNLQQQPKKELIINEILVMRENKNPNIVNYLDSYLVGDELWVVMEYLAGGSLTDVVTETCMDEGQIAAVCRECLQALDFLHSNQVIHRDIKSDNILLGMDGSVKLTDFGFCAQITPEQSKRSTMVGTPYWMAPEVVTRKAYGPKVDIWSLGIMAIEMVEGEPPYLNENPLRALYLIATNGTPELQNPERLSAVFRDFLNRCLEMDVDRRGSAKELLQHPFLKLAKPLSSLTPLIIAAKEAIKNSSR
Method in brief: as §1

PCTK2 = molecular target: T25, PCTK2 (Homo sapiens, UniProt Q00537)
T25 construct: unspecified tag ('tagged kinases'); purchased Ambit (KinomeScan screening)
T25 sequence (Q00537 whole entry): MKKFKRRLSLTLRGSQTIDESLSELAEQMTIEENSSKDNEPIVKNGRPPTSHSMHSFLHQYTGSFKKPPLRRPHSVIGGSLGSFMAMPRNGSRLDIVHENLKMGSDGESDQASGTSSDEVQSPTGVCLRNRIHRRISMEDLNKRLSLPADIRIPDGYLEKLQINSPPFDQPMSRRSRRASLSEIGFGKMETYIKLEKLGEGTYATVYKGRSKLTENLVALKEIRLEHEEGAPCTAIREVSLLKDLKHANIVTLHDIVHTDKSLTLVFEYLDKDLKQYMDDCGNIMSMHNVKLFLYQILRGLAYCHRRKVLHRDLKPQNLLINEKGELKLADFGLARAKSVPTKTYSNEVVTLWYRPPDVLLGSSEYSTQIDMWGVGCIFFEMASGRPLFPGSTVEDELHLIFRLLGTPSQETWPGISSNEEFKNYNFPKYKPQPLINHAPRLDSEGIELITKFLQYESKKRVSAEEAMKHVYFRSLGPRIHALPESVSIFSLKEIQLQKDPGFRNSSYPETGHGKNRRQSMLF
Method in brief: as §1

PKMYT1 = molecular target: T26, PKMYT1 (Homo sapiens, UniProt Q99640)
T26 construct: purchased Ambit (KinomeScan screening service)
Method in brief: as §1

RET(M918T) = molecular target: T27, RET(M918T) (Homo sapiens, UniProt P07949, M918T)
T27 construct: tag (kind not specified); purchased Ambit (KinomeScan screening service)
Method in brief: as §1

RIOK3 = molecular target: T28, RIOK3 (Homo sapiens, UniProt O14730)
T28 construct: unspecified tag (tagged kinase); purchased Ambit (KinomeScan screening)
Method in brief: as §1

RPS6KA3 = molecular target: T29, RPS6KA3 (Homo sapiens, UniProt P51812)
T29 construct: unspecified tag (tagged kinase); purchased Ambit (KinomeScan screening)
Method in brief: as §1

RPS6KA6 = molecular target: T30, RPS6KA6 (Homo sapiens, UniProt Q9UK32)
T30 construct: tag, kind not specified; purchased Ambit (KinomeScan screening service)
T30 sequence (Q9UK32 whole entry): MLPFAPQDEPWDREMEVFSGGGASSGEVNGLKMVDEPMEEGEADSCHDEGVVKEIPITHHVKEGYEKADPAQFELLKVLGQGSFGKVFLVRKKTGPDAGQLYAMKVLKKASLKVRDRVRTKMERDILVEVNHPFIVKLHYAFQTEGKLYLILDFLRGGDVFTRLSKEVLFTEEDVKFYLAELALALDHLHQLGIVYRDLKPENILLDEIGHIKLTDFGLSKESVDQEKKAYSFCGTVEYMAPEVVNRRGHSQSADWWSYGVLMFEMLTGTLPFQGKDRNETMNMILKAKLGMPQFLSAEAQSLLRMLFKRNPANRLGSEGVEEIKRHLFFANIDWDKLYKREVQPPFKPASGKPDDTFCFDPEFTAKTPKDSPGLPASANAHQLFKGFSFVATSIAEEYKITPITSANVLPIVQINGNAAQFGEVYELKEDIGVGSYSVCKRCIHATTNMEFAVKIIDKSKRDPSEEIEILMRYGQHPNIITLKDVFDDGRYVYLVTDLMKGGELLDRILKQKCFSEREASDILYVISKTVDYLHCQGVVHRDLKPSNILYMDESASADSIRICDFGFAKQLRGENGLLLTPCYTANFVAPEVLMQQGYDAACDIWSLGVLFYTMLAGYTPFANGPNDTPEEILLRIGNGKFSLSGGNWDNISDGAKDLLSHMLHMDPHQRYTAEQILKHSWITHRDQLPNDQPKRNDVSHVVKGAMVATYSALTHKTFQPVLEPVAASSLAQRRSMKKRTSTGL
Method in brief: as §1

SLK = molecular target: T31, SLK (Homo sapiens, UniProt Q9H2G2)
T31 construct: tag, kind not specified; purchased Ambit (KinomeScan screening service)
Method in brief: as §1

STK36 = molecular target: T32, STK36 (Homo sapiens, UniProt Q9NRP7)
T32 construct: tag (kind not specified); purchased Ambit (KinomeScan screening service)
T32 sequence (Q9NRP7 whole entry): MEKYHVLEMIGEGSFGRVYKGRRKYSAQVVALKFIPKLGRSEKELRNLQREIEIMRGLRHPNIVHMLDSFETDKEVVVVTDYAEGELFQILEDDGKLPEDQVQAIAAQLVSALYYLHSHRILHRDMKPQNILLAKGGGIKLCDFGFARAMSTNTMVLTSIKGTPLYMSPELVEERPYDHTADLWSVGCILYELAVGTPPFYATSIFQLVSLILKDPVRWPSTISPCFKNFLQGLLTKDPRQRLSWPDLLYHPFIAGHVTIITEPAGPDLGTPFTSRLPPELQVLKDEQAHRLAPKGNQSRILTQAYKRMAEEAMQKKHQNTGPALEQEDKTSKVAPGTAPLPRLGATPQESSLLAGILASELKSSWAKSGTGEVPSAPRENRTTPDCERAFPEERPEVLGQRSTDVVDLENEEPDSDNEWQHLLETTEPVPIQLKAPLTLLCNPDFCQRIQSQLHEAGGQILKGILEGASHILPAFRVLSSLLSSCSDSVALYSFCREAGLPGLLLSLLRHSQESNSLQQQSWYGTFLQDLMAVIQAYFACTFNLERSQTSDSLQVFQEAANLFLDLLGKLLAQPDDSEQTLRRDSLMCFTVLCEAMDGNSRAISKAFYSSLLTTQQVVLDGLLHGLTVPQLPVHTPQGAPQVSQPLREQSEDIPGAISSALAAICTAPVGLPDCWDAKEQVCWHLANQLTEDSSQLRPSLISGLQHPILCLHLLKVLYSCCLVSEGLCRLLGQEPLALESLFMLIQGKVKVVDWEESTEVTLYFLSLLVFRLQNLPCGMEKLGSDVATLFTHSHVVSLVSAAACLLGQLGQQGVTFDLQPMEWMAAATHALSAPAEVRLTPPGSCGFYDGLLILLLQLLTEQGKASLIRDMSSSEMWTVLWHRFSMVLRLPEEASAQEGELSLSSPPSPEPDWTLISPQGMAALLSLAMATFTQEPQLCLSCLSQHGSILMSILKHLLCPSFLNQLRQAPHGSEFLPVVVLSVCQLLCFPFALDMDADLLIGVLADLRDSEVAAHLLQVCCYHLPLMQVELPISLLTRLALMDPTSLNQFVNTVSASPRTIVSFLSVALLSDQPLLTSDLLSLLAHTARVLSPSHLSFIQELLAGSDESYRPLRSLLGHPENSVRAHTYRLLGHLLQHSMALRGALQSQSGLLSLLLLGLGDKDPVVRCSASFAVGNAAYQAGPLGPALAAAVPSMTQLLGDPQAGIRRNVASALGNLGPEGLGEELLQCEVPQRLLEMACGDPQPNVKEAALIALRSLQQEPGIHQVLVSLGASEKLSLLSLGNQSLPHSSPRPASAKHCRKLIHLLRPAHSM
Method in brief: as §1

TAOK1 = molecular target: T33, TAOK1 (Homo sapiens, UniProt Q7L7X3)
T33 construct: tag (kind not specified); purchased Ambit (KinomeScan screening service)
Method in brief: as §1

TBK1 = molecular target: T34, TBK1 (Homo sapiens, UniProt Q9UHD2)
T34 construct: tag (kind not specified); purchased Ambit (KinomeScan screening service)
T34 sequence (Q9UHD2 whole entry): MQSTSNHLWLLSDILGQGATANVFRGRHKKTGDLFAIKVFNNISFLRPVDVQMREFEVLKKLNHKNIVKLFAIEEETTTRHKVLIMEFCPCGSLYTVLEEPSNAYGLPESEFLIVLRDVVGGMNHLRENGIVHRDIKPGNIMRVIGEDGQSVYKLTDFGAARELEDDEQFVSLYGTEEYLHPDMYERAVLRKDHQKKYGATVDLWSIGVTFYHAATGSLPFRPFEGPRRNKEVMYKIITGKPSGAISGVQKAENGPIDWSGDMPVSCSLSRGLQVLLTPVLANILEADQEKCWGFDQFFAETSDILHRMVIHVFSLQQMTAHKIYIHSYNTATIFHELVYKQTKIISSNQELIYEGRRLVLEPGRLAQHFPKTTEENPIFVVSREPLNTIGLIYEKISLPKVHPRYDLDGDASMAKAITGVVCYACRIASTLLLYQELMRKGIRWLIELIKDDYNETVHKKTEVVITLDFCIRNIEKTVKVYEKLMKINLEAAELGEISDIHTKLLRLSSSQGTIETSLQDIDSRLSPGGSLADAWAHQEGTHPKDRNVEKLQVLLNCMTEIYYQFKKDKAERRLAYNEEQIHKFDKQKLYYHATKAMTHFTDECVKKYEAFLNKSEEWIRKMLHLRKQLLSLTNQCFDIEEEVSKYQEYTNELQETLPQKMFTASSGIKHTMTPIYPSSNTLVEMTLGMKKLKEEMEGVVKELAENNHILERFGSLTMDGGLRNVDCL
Method in brief: as §1

TIE2 = molecular target: T35, TIE2 (Homo sapiens, UniProt Q02763)
T35 construct: unspecified tag (tagged kinase); purchased Ambit (KinomeScan screening)
Method in brief: as §1

WEE2 = molecular target: T36, WEE2 (Homo sapiens, UniProt P0C1S8)
T36 construct: purchased Ambit (KinomeScan screening service)
Method in brief: as §1

Measured: Percent of Control Binding

Cc1ccccc1-n1c(C(C)Nc2nc(N)nc3nc[nH]c23)nc2cccc(C)c2c1=O (stereo not drawn) [CAL-130]
18%: CAMKK2
100%: all other assays above
